Source: patent US20240239766A1, “3-AMINO PIPERIDYL SODIUM CHANNEL INHIBITORS” (Genentech, Inc., priority 2021, published 2024)
Where a name gives a salt, the structure may show the parent alone.

Target: hNav1.7 (Homo sapiens (Human), UniProt Q15858)
Test: Patch voltage clamp electrophysiology assay (EP), Syncropatch 384PE, CHO cells expressing Nav1.7
Format: cell-based
Details: holding potential −50 mV; 7.5 min compound incubation; read-out: EP SP hNav1.7 EVO (IC50)
Excerpt: Example 101c: Electrophysiological Assay (EP) (In Vitro Assay)
Patch voltage clamp electrophysiology allows for the direct measurement and quantification of block of voltage-gated sodium channels (NaV's), and allows the determination of the time- and voltage-dependence of block which has been interpreted as differential binding to the resting, open, and inactivated states of the sodium channel (Hille, B., Journal of General Physiology (1977), 69: 497-515).
The following voltage clamp electrophysiology studies are performed on representative compounds using cells heterologously expressing Nav1.7 or Nav1.5 channels. cDNAsfor Nav1.7 (NM_002977) and Nav1.5 (AC137587) are stably expressed in Chinese Hamstr Ovary (CHO) cells and CHL (Chinese Hamster Lung) cells respectively. Sodium currents are measured in the whole-cell configuration using Syncropatch 384PE (Nanlon Technologies, Germany). 1NPC®-384 chips with custom medium resistance and single hole mode are used. Internal solution consists of (in mM): […], 10 CsCl, 20 EGTA, and 10 Hepes (pH adjusted to 7.2); and external solution contains (in mM): 60 NMDG, 80 NaCl, 4 KCl, 1 MgCl2, 2 CaCl2), 2 D-Glucose monohydrate, 10 Hepes (pH adjusted to 7.4 with NaOH).
After system flushing, testing compounds are dissolved in external solution containing 0.1% Pluronic F-127. The chip is moved into the measuring head and the instrument primes the chip with external and internal solutions. 10 μl cells are added to the chip from a cell hotel, and a negative pressure of −50 mBar is applied to form a seal. Following treatment with seal enhancer solution and wash-off with external solution, negative pressure of −250 mbar is applied for 1 second to achieve the whole-cell configuration, followed by three washing steps in external solution. 20 μl of compounds is added to 40 μl in each well (1:3 dilution of compounds), and after mixing, 20 μl is removed so the volume is retained at 40 ul. After approximately 13 minutes recordings, 20 μl/well of 2 uM TTX, or 333 uM Tetracaine (for Nav1.5) is added to achieve full block.
For voltage protocol, an holding potential of −50 mV is applied during the whole experiment. A depolarizing step is applied to −10 mV for 10 ms, followed by a hyperpolarization step to −150 mV for 20 ms to allow channel recovery from inactivation. A second depolarizing step is applied from −150 mV to −10 mV for 10 ms, where currents are measured to derive blocking effects of compounds. Inhibition is determined based on 7.5 min of compound incubation.

Sequence of hNav1.7 (Q15858 other isoform, or with tags, fused parts or gaps): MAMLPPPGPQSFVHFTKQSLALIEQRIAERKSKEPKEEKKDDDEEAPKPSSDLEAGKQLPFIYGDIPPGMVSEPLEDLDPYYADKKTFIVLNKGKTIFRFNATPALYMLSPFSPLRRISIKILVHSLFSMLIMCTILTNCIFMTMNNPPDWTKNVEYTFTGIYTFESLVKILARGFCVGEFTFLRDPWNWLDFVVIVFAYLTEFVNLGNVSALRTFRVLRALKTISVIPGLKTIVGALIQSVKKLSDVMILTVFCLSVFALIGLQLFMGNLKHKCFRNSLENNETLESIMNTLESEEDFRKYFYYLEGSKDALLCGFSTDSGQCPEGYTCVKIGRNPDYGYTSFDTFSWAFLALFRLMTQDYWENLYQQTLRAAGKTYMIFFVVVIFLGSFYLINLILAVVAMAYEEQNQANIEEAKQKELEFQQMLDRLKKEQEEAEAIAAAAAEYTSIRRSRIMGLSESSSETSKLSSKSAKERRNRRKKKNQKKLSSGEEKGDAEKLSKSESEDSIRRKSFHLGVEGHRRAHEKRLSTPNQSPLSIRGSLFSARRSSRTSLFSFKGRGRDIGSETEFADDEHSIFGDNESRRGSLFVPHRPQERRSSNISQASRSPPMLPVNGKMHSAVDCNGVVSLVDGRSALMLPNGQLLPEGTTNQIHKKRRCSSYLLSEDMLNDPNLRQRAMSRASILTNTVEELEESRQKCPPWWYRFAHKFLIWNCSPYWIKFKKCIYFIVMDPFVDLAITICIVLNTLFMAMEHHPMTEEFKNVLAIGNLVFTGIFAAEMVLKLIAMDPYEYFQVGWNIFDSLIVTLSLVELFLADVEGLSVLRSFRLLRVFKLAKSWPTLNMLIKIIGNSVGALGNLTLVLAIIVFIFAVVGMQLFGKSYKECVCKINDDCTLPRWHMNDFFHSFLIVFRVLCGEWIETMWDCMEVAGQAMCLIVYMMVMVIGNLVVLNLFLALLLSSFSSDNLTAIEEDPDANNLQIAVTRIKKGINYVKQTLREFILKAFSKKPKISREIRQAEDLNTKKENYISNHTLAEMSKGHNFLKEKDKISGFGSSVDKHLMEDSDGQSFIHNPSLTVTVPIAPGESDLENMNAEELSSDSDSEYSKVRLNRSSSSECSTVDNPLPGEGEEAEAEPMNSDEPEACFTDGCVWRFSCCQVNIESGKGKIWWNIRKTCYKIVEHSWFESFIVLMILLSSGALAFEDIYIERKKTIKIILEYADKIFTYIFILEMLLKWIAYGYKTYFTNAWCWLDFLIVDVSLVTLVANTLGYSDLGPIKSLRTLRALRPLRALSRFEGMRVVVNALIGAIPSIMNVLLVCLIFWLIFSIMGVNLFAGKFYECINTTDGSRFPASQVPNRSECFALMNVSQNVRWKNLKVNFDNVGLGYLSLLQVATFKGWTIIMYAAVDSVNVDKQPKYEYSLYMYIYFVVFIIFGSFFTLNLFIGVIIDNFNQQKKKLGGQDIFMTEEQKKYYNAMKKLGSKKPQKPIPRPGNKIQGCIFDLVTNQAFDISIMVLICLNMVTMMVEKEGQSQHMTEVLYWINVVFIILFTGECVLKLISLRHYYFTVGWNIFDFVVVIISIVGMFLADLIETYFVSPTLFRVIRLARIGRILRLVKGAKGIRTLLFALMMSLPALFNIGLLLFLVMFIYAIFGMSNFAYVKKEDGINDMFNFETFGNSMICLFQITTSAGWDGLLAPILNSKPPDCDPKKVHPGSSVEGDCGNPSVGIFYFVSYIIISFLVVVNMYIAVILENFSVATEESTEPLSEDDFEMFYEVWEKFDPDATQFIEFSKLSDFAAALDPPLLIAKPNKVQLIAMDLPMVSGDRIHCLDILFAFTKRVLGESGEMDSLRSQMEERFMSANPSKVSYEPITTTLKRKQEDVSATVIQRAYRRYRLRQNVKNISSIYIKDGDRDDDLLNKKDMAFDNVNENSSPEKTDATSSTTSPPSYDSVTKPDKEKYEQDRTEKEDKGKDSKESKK

Row | Structure (SMILES) | IC50 [µM]
1 | CN(C)[C@]1(C2CC(c3cccc(C(F)(F)F)c3)C2)CCCN(c2cc(F)c(S(=O)(=O)Nc3ccncn3)c(F)c2)C1 (stereo partly drawn) [Example 96, 4-((S)-3-(Dimethylamino)-3-((1s,3R)-3-(3-(trifluoromethyl)-phenyl)cyclobutyl)piperidin-1-yl)-2,6-difluoro-N-(pyrimidin-4-yl)benzenesulfonamide] | 0.00181
2 | CN1CC[C@H](N(C)[C@@]2(CCc3cccc(C(F)(F)F)c3)CCCN(c3cc(F)c(S(=O)(=O)Nc4ccncn4)c(F)c3)C2)C1 (single isomer, unassigned) [Example 45] | 0.00169
3 | CN(C)C1(C2CC(c3cccc(C(F)(F)F)c3)C2)CCCN(c2cc(F)c(S(=O)(=O)Nc3ccncn3)c(F)c2)C1 (stereo not shown) [Example 95, 4-(3-(Dimethylamino)-3-(3-(3-(trifluoromethyl)phenyl)-cyclobutyl)piperidin-1-yl)-2,6-difluoro-N-(pyrimidin-4-yl)benzenesulfonamide] | 0.0141
4 | CN(C)[C@@]1(CCc2cccc(C3CC3)c2)CCCN(c2cc(F)c(S(=O)(=O)Nc3ccncn3)c(F)c2)C1 (single isomer, unassigned) [Example 88, formate] | 0.00329
5 | CN(C)[C@]1(CCc2cccc(C(F)(F)F)c2)CCCN(c2cc(F)c(S(=O)(=O)Nc3ncccn3)c(F)c2)C1 (single isomer, unassigned) [Example 53] | 0.00923
6 | CN(C)[C@]1(CCc2cccc(C(F)(F)F)c2)CCCN(c2ccc(S(=O)(=O)Nc3nccs3)c(F)c2)C1 (single isomer, unassigned) [Example 14] | 0.0587
7 | CN([C@@H]1CCOC1)[C@]1(CCc2cccc(C(F)(F)F)c2)CCCN(c2cc(F)c(S(=O)(=O)Nc3ccncn3)c(F)c2)C1 (single isomer, unassigned) [Example 81] | 0.000681
8 | O=S(=O)(Nc1ccncn1)c1ccc(N2CCC[C@](CCc3cccc(C(F)(F)F)c3)(N3CCCC3)C2)cc1F (single isomer, unassigned) [Example 23] | 0.00862
9 | CN(C)[C@]1(CCc2cccc(C(F)(F)F)c2)CCCN(c2cc(F)c(S(=O)(=O)Nc3ccncn3)cc2Cl)C1 (single isomer, unassigned) [Example 12] | 0.0515
10 | CN(C)[C@@]1(C2CC(c3cccc(C(F)(F)F)c3)C2)CCCN(c2cc(F)c(S(=O)(=O)Nc3ccncn3)c(F)c2)C1 (stereo partly drawn) [Example 94, 4-((R)-3-(Dimethylamino)-3-((1r,3R)-3-(3-(trifluoromethyl)phenyl)-cyclobutyl)piperidin-1-yl)-2,6-difluoro-N-(pyrimidin-4-yl)benzenesulfonamide] | 0.127
11 | CN(CCO)[C@@]1(CCc2cccc(C(F)(F)F)c2)CCCN(c2cc(F)c(S(=O)(=O)Nc3ccncn3)c(F)c2)C1 (single isomer, unassigned) [Example 60] | 0.138
12 | CN(C)[C@]1(CCc2ccc(C(F)(F)F)cc2)CCCN(c2ccc(S(=O)(=O)Nc3ccncn3)c(F)c2)C1 (single isomer, unassigned) [Example 8] | 2.07
13 | CN(C)[C@]1(CCc2cccc(C(F)(F)F)c2)CCCN(c2cc(Cl)c(S(=O)(=O)Nc3ccncn3)c(Cl)c2)C1 (single isomer, unassigned) [Example 65] | 0.0694
14 | CN(C)[C@]1(CCc2ccc(C3CC3)c(C(F)(F)F)c2)CCCN(c2cc(F)c(S(=O)(=O)Nc3ccncn3)c(F)c2)C1 (single isomer, unassigned) [Example 87] | 0.682
15 | CN(CCO)[C@]1(CCc2cccc(C(F)(F)F)c2)CCCN(c2cc(F)c(S(=O)(=O)Nc3ccncn3)c(F)c2)C1 (single isomer, unassigned) [Example 61] | 0.00214
16 | CN(C)[C@]1(CCc2c(Cl)cccc2Cl)CCCN(c2cc(F)c(S(=O)(=O)Nc3ccncn3)c(F)c2)C1 (single isomer, unassigned) [Example 69, formate] | 0.0277
17 | CN(C)[C@]1(CCc2cc(Cl)cc(C(F)(F)F)c2)CCCN(c2cc(F)c(S(=O)(=O)Nc3ccncn3)c(F)c2)C1 [Example 43, (R)-4-(3-(3-Chloro-5-(trifluoromethyl)phenethyl)-3-(dimethylamino)piperidin-1-yl)-2,6-difluoro-N-(pyrimidin-4-yl)benzenesulfonamide] | 0.000443
18 | CN(C)[C@]1(CCc2ccccc2)CCCN(c2ccc(S(=O)(=O)Nc3ccncn3)c(F)c2)C1 (single isomer, unassigned) [Example 6] | 0.0489
19 | O=S(=O)(Nc1ccncn1)c1ccc(N2CCC[C@@](CCc3cccc(C(F)(F)F)c3)(N3CCC3)C2)cc1F (single isomer, unassigned) [Example 22] | 0.0844

Row | Structure (SMILES) | IC50 [µM]
20 | CCN(C)[C@]1(CCc2cccc(C(F)(F)F)c2)CCCN(c2cc(F)c(S(=O)(=O)Nc3ccncn3)c(F)c2)C1 (single isomer, unassigned) [Example 79, formate] | 0.00756
21 | CN(C)[C@]1(CCc2ccc(C(F)(F)F)cc2Cl)CCCN(c2cc(F)c(S(=O)(=O)Nc3ccncn3)c(F)c2)C1 (single isomer, unassigned) [Example 57] | 0.00504
22 | CN([C@H]1CCOC1)[C@]1(CCc2cccc(C(F)(F)F)c2)CCCN(c2cc(F)c(S(=O)(=O)Nc3ccncn3)c(F)c2)C1 (single isomer, unassigned) [Example 83] | 0.00168
23 | CN(C)[C@]1(CCc2ccc(C(F)(F)F)c(Cl)c2)CCCN(c2cc(F)c(S(=O)(=O)Nc3ccncn3)c(F)c2)C1 (single isomer, unassigned) [Example 51] | 0.00103
24 | CN1CC[C@@H](N(C)[C@@]2(CCc3cccc(C(F)(F)F)c3)CCCN(c3cc(F)c(S(=O)(=O)Nc4ccncn4)c(F)c3)C2)C1 (single isomer, unassigned) [Example 44] | 0.195
25 | CN(C)[C@]1(CCc2cccc(C(F)(F)F)c2)CCCN(c2ccc(S(=O)(=O)Nc3ccncn3)c(Cl)c2)C1 (single isomer, unassigned) [Example 71, formate] | 0.56
26 | CN(C)[C@@]1(CCc2cccc(C(F)(F)F)c2)CCCN(c2ccc(S(=O)(=O)Nc3ccncn3)c(Cl)c2)C1 (single isomer, unassigned) [Example 70] | 0.00424
27 | CN(C)[C@]1(CCc2cc(C(F)(F)F)ccc2Cl)CCCN(c2cc(F)c(S(=O)(=O)Nc3ccncn3)c(F)c2)C1 (single isomer, unassigned) [Example 33, formate] | 0.00189
28 | CN(C)[C@]1(CCc2cccc(C3CC3)c2)CCCN(c2cc(F)c(S(=O)(=O)Nc3ccncn3)c(F)c2)C1 (single isomer, unassigned) [Example 89, formate] | 0.567
29 | CN(C)CCN(C)[C@@]1(CCc2cccc(C(F)(F)F)c2)CCCN(c2ccc(S(=O)(=O)Nc3ccncn3)c(F)c2)C1 (single isomer, unassigned) [Example 27, formate] | 2.15
30 | CN([C@@H]1CCOC1)[C@@]1(CCc2cccc(C(F)(F)F)c2)CCCN(c2cc(F)c(S(=O)(=O)Nc3ccncn3)c(F)c2)C1 (single isomer, unassigned) [Example 82] | 0.657
31 | CN(C)[C@@]1(CCc2cccc(C(F)(F)F)c2)CCCN(c2ccc(S(=O)(=O)Nc3ccncn3)c(F)c2)C1 (single isomer, unassigned) [Example 2, formate] | 0.601
32 | CN(C)[C@@]1(CCc2cccc(C(F)(F)F)c2)CCCN(c2cc(Cl)c(S(=O)(=O)Nc3ccncn3)c(Cl)c2)C1 (single isomer, unassigned) [Example 64] | 0.00154
33 | CN(C)CCN(C)[C@]1(CCc2cccc(C(F)(F)F)c2)CCCN(c2ccc(S(=O)(=O)Nc3ccncn3)c(F)c2)C1 (single isomer, unassigned) [Example 28, formate] | 0.00808
34 | CN(C)[C@@]1(CCc2cc(Cl)cc(C(F)(F)F)c2)CCCN(c2cc(F)c(S(=O)(=O)Nc3ccncn3)c(F)c2)C1 (single isomer, unassigned) [Example 42] | 0.052
35 | CN1CCC(CN(C)C2(CCc3cccc(C(F)(F)F)c3)CCCN(c3ccc(S(=O)(=O)Nc4ccncn4)c(F)c3)C2)C1 (stereo not shown) [Example 31, 2-Fluoro-4-(3-(methyl((1-methylpyrrolidin-3-yl)methyl)amino)-3-(3-(trifluoromethyl)phenethyl)piperidin-1-yl)-N-(pyrimidin-4-yl)benzenesulfonamide formate] | 0.00859
36 | CN(C)[C@@]1(CCc2cccc(C(F)(F)F)c2)CCCN(c2cc(F)c(S(=O)(=O)Nc3ccncn3)cc2F)C1 (single isomer, unassigned) [Example 38] | 0.0288
37 | CN(C)[C@@]1(CCc2cccc(C(F)(F)F)c2)CCCN(c2ccc(S(=O)(=O)Nc3nccs3)c(F)c2)C1 (single isomer, unassigned) [Example 13] | 0.00153
